Values joined by “and” are separate entries in the source; they are usually repeats but may differ in a detail not shown here. Equal values may be shown once.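 Cultured in 96-well plates, cells were exposed to test compound for 48 hours across five concentrations. Here, GI50 denotes the concentration required for 50% inhibition of growth. The concentration for full growth arrest is given as TGI.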
Assays:
Experiment in all cases: DTP human tumour cell line panel, 48 h
MDA-MB-231 breast = system: MDA-MB-231 breast
K-562 leukemia = system: K-562 leukemia
M14 melanoma = system: M14 melanoma
SNB-75 CNS = system: SNB-75 CNS
SK-MEL-5 melanoma = system: SK-MEL-5 melanoma
MCF7 breast = system: MCF7 breast
DU-145 prostate = system: DU-145 prostate
HOP-62 NSCLC = system: HOP-62 NSCLC

Structure (SMILES)	GI50 (MDA-MB-231 breast) [µM]	TGI (MDA-MB-231 breast)	GI50 (K-562 leukemia) [µM]	TGI (K-562 leukemia)	GI50 (M14 melanoma) [µM]	TGI (M14 melanoma)	GI50 (SNB-75 CNS) [µM]	TGI (SNB-75 CNS)	GI50 (SK-MEL-5 melanoma) [µM]	TGI (SK-MEL-5 melanoma)	GI50 (MCF7 breast) [µM]	TGI (MCF7 breast)	GI50 (DU-145 prostate) [µM]	TGI (DU-145 prostate)	GI50 (HOP-62 NSCLC) [µM]	TGI (HOP-62 NSCLC)
COc1ccc(-c2onc(N)c2-c2cc(OC)c3c(c2)OCO3)cc1	3.4	65.8 µM	0.473	> 100 µM	1.49	7.28 µM	1.75	7.32 µM	2.8	> 25.6 µM	0.932	> 100 µM	3.57	> 59.3 µM	4.53	> 100 µM
O=C(O)/C=C(\c1nc2ccc([N+](=O)[O-])cc2[nH]1)c1cc(Cl)ccc1O	2.11	9.25 µM	2.8	16.6 µM	2.78	12 µM	3.14	27.6 µM	1.1	4.06 µM	2.36	16.6 µM	4.12	> 100 µM	3.55	28.3 µM
Cc1cc2c(cc1Cl)SC1=NN(C)S(=O)N1S2(=O)=O (stereo not given)	> 100	> 100 µM	> 100	> 100 µM	> 100	> 100 µM	58.7	> 100 µM	> 100	> 100 µM	> 100	> 100 µM	> 100	> 100 µM	> 100	> 100 µM
C[N+]1=C(/C=C/c2ccc(O)c3ncccc23)C(C)(C)c2ccccc21	2.75	11 µM	2.32	> 100 µM	2.53	7.7 µM	2.26	7.78 µM	2.26	5.71 µM	2.71	10.7 µM	2.98	12.1 µM	3.44	14.5 µM
Nc1nc2c(nnn2C2CC(O)C(CO)O2)c(=O)[nH]1 (stereo not given)	5.41	> 100 µM	4.04	> 100 µM	4.47	> 92.1 µM	7.59	> 100 µM	14.7	> 89 µM	4.21	> 100 µM	1.45	> 100 µM	7.91	> 93.9 µM
O=C(O)CCNC1CCCCC1	> 100	> 100 µM	> 100	> 100 µM	> 100	> 100 µM	> 100	> 100 µM	> 100	> 100 µM	> 100	> 100 µM	> 100	> 100 µM	> 100	> 100 µM
Nc1nccc(-c2c(-c3ccc(F)cc3)ncn2C2CCC(O)CC2)n1 (stereo not given)	14.5	> 25 µM	11.9	> 25 µM	14	> 25 µM	6.61	> 21 µM	3.94	> 25 µM	0.677	> 9.14 µM	11.2	> 25 µM	13.2	> 25 µM
COc1ccc2c(c1)C(=O)c1c-2n(CCCn2ccnc2)c(=O)c2cc([N+](=O)[O-])ccc12	2.59	> 100 µM	< 0.01	> 100 µM	< 0.01	< 0.01 µM	< 0.0138	0.41 µM	< 0.01	< 0.01 µM	< 0.01	> 100 µM	< 0.01	< 0.0294 µM	< 0.01	0.0119 µM
C#CCNC(=O)c1cccc2c1cc(C)n2-c1nc2c(c(NCc3ccccc3)n1)CCCC2	0.0216	0.0546 µM	0.0179	–	0.0195	0.0439 µM	0.0365	0.0872 µM	0.00886	0.0235 µM	0.0151	0.142 µM	0.0298	0.108 µM	0.0308	0.114 µM
O=C(CCc1nnc2sc(-c3ccc(Cl)cc3Cl)nn12)c1nc2ccccc2[nH]1	0.746	2.21 µM	0.451	2.56 µM	0.282	1.03 µM	1.48	3.53 µM	1.26	2.51 µM	0.466	2.45 µM	1.15	2.38 µM	0.577	2.12 µM
CCN(CC)CCCC(C)Nc1c2ccc(Cl)cc2nc2ccc(O)cc12 (stereo not given)	2	5.39 µM	2.22	8.94 µM	1.56	2.99 µM	1.62	3.86 µM	1.73	3.12 µM	1.4	5.48 µM	2.26	8.39 µM	1.49	5.32 µM
O=C1C(Cl)=C(NCCN2CCOCC2)C(=O)c2ncccc21	–	5.02 µM and 3.77 µM	1.67	3.67 µM and 4.61 µM	–	3.17 µM and 3.25 µM	1.67	2.85 µM and 3.58 µM	1.72	2.32 µM and 3.16 µM	1.28	3.4 µM and 3.31 µM	–	3.11 µM and 3.14 µM	1.77	4.46 µM and 3.36 µM
Nc1nc(N(Cc2ccccc2)c2ccccc2)c2cn[nH]c2n1	6.41	> 100 µM	2.49	> 100 µM	5.22	> 100 µM	2.47	> 100 µM	3.04	> 100 µM	4.34	> 100 µM	4.57	> 100 µM	3.47	> 100 µM
O=C(O)C(=Cc1ccc(-c2ccccc2)cc1)C(=O)O	–	38.5 µM	–	36.9 µM	–	29.5 µM	–	28 µM	–	23.9 µM	–	33.5 µM	–	> 39 µM	–	22.5 µM
COC(=O)Nc1nc2ccc(Oc3ccc(NC(=O)Nc4cc(C(F)(F)F)ccc4F)cc3)cc2s1	9.05	> 25 µM	0.0202	> 25 µM	2.83	> 25 µM	6.76	> 23.8 µM	> 25	> 25 µM	> 19.6	> 25 µM	10.6	> 25 µM	16.7	> 25 µM
COc1ccc(-c2nc(-c3nc4ccc(Cl)cc4[nH]3)c3ccccn23)cc1	2.77	7.75 µM	5.4	80.1 µM	4.24	18.4 µM	1.87	3.94 µM	4.27	27.8 µM	3.15	16 µM	3.27	11.1 µM	1.96	3.76 µM
CC[C@@]1(c2ccccc2)C2=C(CC(C)(C)CC2=O)Nc2[nH]ncc21	> 100	> 100 µM	> 100	> 100 µM	> 100	> 100 µM	14.9	> 100 µM	> 100	> 100 µM	> 100	> 100 µM	> 100	> 100 µM	> 100	> 100 µM
O=S(=O)(NC1=NCCN1C(=S)SN1CCn2c1nsc2=S)c1cccc(Cl)c1	15.3	50.7 µM	13.4	> 100 µM	15.8	33.2 µM	29.2	55.6 µM	16.7	31.9 µM	15.9	36.3 µM	22.2	64.6 µM	18.5	37.6 µM
COc1cc2ncn(-c3cc(OCc4cccs4)c(C(N)=O)s3)c2cc1OC	2.21	> 21.2 µM	1.14	> 25 µM	1.82	> 17.3 µM	5.72	> 22.4 µM	1.94	> 25 µM	0.752	> 12.5 µM	0.935	> 8.22 µM	1.53	> 25 µM
O=C1c2cccc([N+](=O)[O-])c2C(=O)N1c1ncn[nH]1	–	> 100 µM	–	> 100 µM	–	> 100 µM	–	64.6 µM	–	> 100 µM	–	> 100 µM	–	> 100 µM	–	> 100 µM
CCCC(=O)OCC1OC(n2cnc3c(=S)nc[nH]c32)C(OC(=O)CCC)C1OC(=O)CCC (stereo not given)	5.71	> 100 µM	1.7	> 100 µM	2.23	> 100 µM	4.04	> 100 µM	5.24	62.9 µM	1.95	> 100 µM	3.06	> 100 µM	2.84	> 100 µM
Cc1cc(-c2cnn3c(NCC4CC(C)(O)C4)cc(Oc4cccnc4)nc23)ccc1C(=O)NC1CC1 (stereo not given)	3.39	> 100 µM	> 100	> 100 µM	1.44	> 100 µM	2.11	> 100 µM	2.22	> 100 µM	98.9	> 100 µM	2.26	> 100 µM	8.57	> 100 µM
COc1ccc(N2C(=O)/C(=C/c3ccc(N(CCC#N)CCC#N)cc3C)N=C2c2cc([N+](=O)[O-])ccc2Cl)cc1	–	49.4 µM	–	36.7 µM	–	24.4 µM	–	7.06 µM	–	51.8 µM	–	> 46.4 µM	–	34.8 µM	–	> 63.1 µM

Reference: PubChem BioAssay (NCI)
